Each structure is given as a SMILES string. “And” between values parts separate entries of the source, which are not always exact repeats. Equal values may be shown once.

In test [1] the test system is lymphocyte (thymocyte / T-cell) proliferation. Briefly: Comitogen-induced thymocyte proliferation procedure (LAF). It is filed as cell-based, normal BALB/c mice. To be noted: for inhibition at 0.1 µM / IC50: Mus musculus; for inhibition at 0.1 µM: T-cell, read-out: % Inhib. (percent inhibition of T-cell proliferation at 0.1 μM); for IC50: Thymocyte, thymus cells of BALB/c mice cultured 72 hours with PHA and IL-1, tritiated thymidine pulse during last six hours; for LAF (ratio) compared with rapamycin: >1 means test compound inhibits thymocyte proliferation more than rapamycin. As for the experimental part:
(§1) Immunosuppressive activity for representative compounds of this invention was evaluated in an in vitro standard pharmacological test procedure to measure lymphocyte proliferation (LAF) and in an in vivo standard pharmacological test procedure which evaluated the survival time of a pinch skin graft.
The comitogen-induced thymocyte proliferation procedure (LAF) was used as an in vitro measure of the immunosuppressive effects of representative compounds. Briefly, cells from the thymus of normal BALB/c mice are cultured for 72 hours with PHA and IL-1 and pulsed with tritiated thymidine during the last six hours. Cells are cultured with and without various concentrations of rapamycin, cyclosporin A, or test compound. Cells are harvested and incorporated radioactivity is determined. Inhibition of lymphoproliferation is assessed as percent change in counts per minute from non-drug treated controls. For each compound evaluated, rapamycin was also evaluated for the purpose of comparison. An IC50 was obtained for each test compound as well as for rapamycin. […] The results obtained are provided as an IC50 and as the percent inhibition of T-cell proliferation at 0.1 μM. The results obtained for the representative compounds of this invention were also expressed as a ratio compared with rapamycin. A positive ratio indicates immunosuppressive activity. […] Calculation of the ratio is shown below. [formula]

The subject of the next test is pinch skin graft. Briefly: Pinch skin graft survival time. It counts as in vivo, male BALB/c donors, male C3H(H-2K) recipients. The conditions noted are these: 4 mg/kg, intraperitoneally or orally; untreated controls rejected within 6-7 days. As for the experimental part: as §1
Representative compounds of this invention were also evaluated in an in vivo test procedure designed to determine the survival time of pinch skin graft from male BALB/c donors transplanted to male C3 H(H-2K) recipients. The method is adapted from Billingham R. E. and Medawar P. B., J. Exp. Biol. 28:385-402, (1951 ). Briefly, a pinch skin graft from the donor was grafted on the dorsum of the recipient as a allograft, and an isograft was used as control in the same region. The recipients were treated with either varying concentrations of test compounds intraperitoneally or orally. Rapamycin was used as a test control. Untreated recipients serve as rejection control. The graft was monitored daily and observations were recorded until the graft became dry and formed a blackened scab. This was considered as the rejection day. The mean graft survival time (number of days±S.D.) of the drug treatment group was compared with the control group. […] Results are expressed as the mean survival time in days. Untreated (control) pinch skin grafts are usually rejected within 6-7 days. The results shown in Table 1 are based on a dose of 4 mg/kg of test compound. A survival time of 12.0 ±1.7 days was obtained for rapamycin at 4 mg/kg.

In another test the test system is Candida albicans. To be noted: in vitro and in vivo; cited from earlier work.
Test [2] concerns experimental allergic encephalomyelitis model, a model for multiple sclerosis. The conditions noted are these: in vivo; cited from earlier work.
The conditions of test [3]: alone or in combination with picibanil; cited from earlier work.
Test [4] has as its system adjuvant arthritis model, a model for rheumatoid arthritis. The conditions noted are these: in vivo; cited from earlier work.
The test system of test [5] is formation of IgE-like antibodies. To be noted: in vivo; cited from earlier work.

With `CCOP(=O)(NC(=O)O[C@@H]1/C(C)=C/[C@@H](C)C(=O)C[C@@H]([C@H](C)C[C@@H]2CC[C@@H](OC(=O)NP(=O)(OCC)OCC)[C@H](OC)C2)OC(=O)[C@@H]2CCCCN2C(=O)C(=O)[C@]2(O)O[C@@H](CC[C@H]2C)C[C@H](OC)/C(C)=C/C=C/C=C/[C@@H](C)C[C@@H](C)C(=O)[C@@H]1OC)OCC` [Example 1, Rapamycin 31,42-diester with (diethoxyphosphoryl)carbamic acid], in test [1], the inhibition at 0.1 µM came to 72%, the IC50 is 90.9 nM and the “LAF (ratio) compared with rapamycin” value is given as 0.04. Moreover, in the test on pinch skin graft, the “Skin Graft mean survival time (days ± SD)” value worked out at 7.2 ± 0.4 days.

For the compound `CCOP(=O)(NC(=O)O[C@@H]1CC[C@@H](C[C@@H](C)[C@@H]2C/C(=N\OC)[C@H](C)/C=C(\C)[C@@H](O)[C@@H](OC)C(=O)[C@H](C)C[C@H](C)/C=C/C=C/C=C(\C)[C@@H](OC)C[C@@H]3CC[C@@H](C)[C@@](O)(O3)C(=O)C(=O)N3CCCC[C@H]3C(=O)O2)C[C@H]1OC)OCC` [Example 3, Rapamycin 42-ester with (diethoxyphosphoryl)carbamic acid (E)-27-O-(methyl)oxime], in test [1], the inhibition at 0.1 µM came out at 51%, the IC50 was found to be 99 nM and the “LAF (ratio) compared with rapamycin” value is listed as 0.05.

As to `CCOP(=O)(NC(=O)O[C@@H]1CC[C@@H](C[C@@H](C)[C@@H]2CC(=O)[C@H](C)/C=C(\C)[C@@H](O)[C@@H](OC)C(=O)[C@H](C)C[C@H](C)/C=C/C=C/C=C(\C)[C@@H](OC)C[C@@H]3CC[C@@H](C)[C@@](O)(O3)C(=O)C(=O)N3CCCC[C@H]3C(=O)O2)C[C@H]1OC)OCC` [Example 2, Rapamycin 42-ester with (diethoxyphosphoryl)carbamic acid], in test [1], the inhibition at 0.1 µM was determined as 95%, the IC50 turned out to be 10 nM and the “LAF (ratio) compared with rapamycin” value was 0.44. For the same compound, the “Skin Graft mean survival time (days ± SD)” value in the test on pinch skin graft was 10.2 ± 0.4 days and 10.0 ± 0.6 days.

`CO[C@H]1C[C@@H]2CC[C@@H](C)[C@@](O)(O2)C(=O)C(=O)N2CCCC[C@H]2C(=O)O[C@H]([C@H](C)C[C@@H]2CC[C@@H](O)[C@H](OC)C2)CC(=O)[C@H](C)/C=C(\C)[C@@H](O)[C@@H](OC)C(=O)[C@H](C)C[C@H](C)/C=C/C=C/C=C/1C` [rapamycin] showed an IC50 in test [1] of 0.4 to 5.1 nM. For the same compound, the antifungal activity result in the test on Candida albicans was “antifungal activity, particularly against Candida albicans, both in vitro and in vivo”. In test [2], the “effect in the experimental allergic encephalomyelitis model” value is listed as “effective”. Further, the antitumor activity result in test [3] was “antitumor activity”. Besides, in test [4], the “effect in the adjuvant arthritis model” value is listed as “effective”. Besides, in the test on pinch skin graft, the “Skin Graft mean survival time (days ± SD)” value stood at 12.0 ± 1.7 days. The “inhibition of the formation of IgE-like antibodies” value in test [5] is “effectively inhibited the formation of IgE-like antibodies”.

Take `CCOP(=O)(NC(=O)O[C@@H]1CC[C@@H](C[C@@H](C)[C@@H]2C/C(=N/OC)[C@H](C)/C=C(\C)[C@@H](O)[C@@H](OC)C(=O)[C@H](C)C[C@H](C)/C=C/C=C/C=C(\C)[C@@H](OC)C[C@@H]3CC[C@@H](C)[C@@](O)(O3)C(=O)C(=O)N3CCCC[C@H]3C(=O)O2)C[C@H]1OC)OCC` [Example 4, Rapamycin 42-ester with (diethoxyphosphoryl)carbamic acid (Z)-27-O-(methyl)oxime]: in test [1], the inhibition at 0.1 µM turned out to be 82%, it took 41.9 nM to reach half-maximal inhibition (IC50) and the “LAF (ratio) compared with rapamycin” value stood at 0.01.

As usually defined, the IC50 is the concentration that inhibits the measured activity by half.

(Values after patent US5455249A, “Phosphorylcarbamates of rapamycin and oxime derivatives thereof” (priority 1994, dated 1995).)
